Test results from article PMC9098870, “Integrated omics approach to unveil antifungal bacterial polyynes as acetyl-CoA acetyltransferase inhibitors” (Communications Biology, 2022).
Each block holds one compound with its values, some of them ahead of it.

What was measured:
[1] = molecular target: T1, MasL ([Empedobacter] haloabium, UniProt A0A915Q9D3); test: CoA release, fluorescent probe; progress curves, covalent inhibitor model; type: biochemical
T1 construct: gene E7V67_18950; recombinant, purified from E. coli; residues 1-394 described; tetramer in solution; reactive Cys90, His350, Cys380; tag details in supplement
Text: CoA release, fluorescent probe; progress curves, covalent inhibitor model on MasL

[2] = molecular target: MasL-collimonin D complex (MasL modified by collimonin D) (Massilia sp. YMA4); test: crystal structure; X-ray crystal structures of MasL, apo and after incubation with collimonin C or D; a tetramer in the asymmetric unit (space groups P1, P2_(1), P1)
[3] = molecular target: MasL (acetyl-CoA acetyltransferase of Massilia sp. YMA4), apo form (Massilia sp. YMA4); test: as above
[4] = molecular target: MasL (acetyl-CoA acetyltransferase of Massilia sp. YMA4), apo form (Massilia sp. YMA4); test: not stated; oligomeric state of MasL in solution; method not given
[5] = molecular target: MasL-collimonin C complex (MasL covalently modified by collimonin C at Cys90) (Massilia sp. YMA4); test: crystal structure; X-ray crystal structures of MasL, apo and after incubation with collimonin C or D; a tetramer in the asymmetric unit (space groups P1, P2_(1), P1)

T1 sequence (A0A915Q9D3 entry or part of it): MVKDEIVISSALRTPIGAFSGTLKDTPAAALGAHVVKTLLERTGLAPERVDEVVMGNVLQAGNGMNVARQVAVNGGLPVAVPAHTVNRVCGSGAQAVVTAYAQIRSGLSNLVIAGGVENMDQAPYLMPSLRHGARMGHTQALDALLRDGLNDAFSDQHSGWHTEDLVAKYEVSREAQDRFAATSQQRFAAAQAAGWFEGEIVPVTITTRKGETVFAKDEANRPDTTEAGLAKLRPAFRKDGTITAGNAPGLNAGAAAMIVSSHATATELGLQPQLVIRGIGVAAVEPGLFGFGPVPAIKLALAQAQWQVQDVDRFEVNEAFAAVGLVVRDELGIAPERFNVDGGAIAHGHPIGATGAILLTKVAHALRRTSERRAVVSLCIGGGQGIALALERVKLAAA

Compound: C#CC#CC#C/C=C/C[C@@H](O)[C@@H](O)CCCCC(=O)O [compound 1, collimonin C]
KI (inactivation) ([1]; covalent, irreversible S-alkylation of Cys90, competitive against acetyl-CoA, complex structure 1.66 Å): 297 µM

stoichiometry N [2]: 4
Compound: MasL-collimonin D complex (MasL modified by collimonin D) (enzyme)

Compound: C#CC#CC#C/C=C/CCC(O)CCCCC(=O)O (centres unmarked) [compound 3, massilin A]
KI (inactivation) ([1]; covalent, adduct by mass spectrometry): 132 µM

Compound: C#CC#CC#C/C=C/C[C@@H](O)[C@H](O)CCCCC(=O)O [compound 2, collimonin D]
KI (inactivation) ([1]; covalent, irreversible S-alkylation of Cys90 (by MS), competitive against acetyl-CoA, complex structure 1.40 Å): 42.8 µM

stoichiometry N [3]: 4 | stoichiometry N [4]: 4
Compound: MasL (acetyl-CoA acetyltransferase of Massilia sp. YMA4), apo form (enzyme)

Compound: C#CC#CC#C/C=C/CCCCCCCC(=O)O [compound 5, massilin C]
KI (inactivation) ([1]; covalent inhibitor model): 228 µM

stoichiometry N [5]: 4
Compound: MasL-collimonin C complex (MasL covalently modified by collimonin C at Cys90) (enzyme)
